*1 amine or outer side, *2 acyl side, *3 side chain or, on linkers, in order; H or OH if unused. Where a SMILES comes first, the peptide text is derived from it. Bridges are numbered along the chain shown (N, C = ends). [ ]: non-standard residue; d: D form. The star is where a group is joined. X1 = NC1=N[C@@H]([C@H](N[*:1])C(=O)[*:2])C[C@H](O)N1; ΔAla(Z-3-ureido) = NC(=O)N/C=C(\N)C(=O)O; β3hOrn = NCCC[C@H](N)CC(=O)*; Dap = NC[C@H](N)C(=O)O
Tested on: Phospholipidosis
Experiment: Literature-mined public compounds from Kruhlak et al phospholipidosis modelling dataset

Structure (SMILES) | Phospholipidosis
O=C1CC2(CCCC2)CC(=O)N1CCCCN1CCN(c2ncccn2)CC1 [BUSPIRONE] | Negative: confirmed by electron microscopy
CCOC(=O)C1(c2ccccc2)CCN(CCc2ccc(N)cc2)CC1 [ANILERIDINE] | Negative: based on the absence of positive reported data from WMDD
O=C1OC(c2ccc(O)c(S(=O)(=O)O)c2)(c2ccc(O)c(S(=O)(=O)O)c2)c2c(Br)c(Br)c(Br)c(Br)c21 [SULFOBROMOPHTHALEIN] | Negative: based on the absence of positive reported data from WMDD
O=C(CCCN1CCC(O)(c2ccc(Cl)cc2)CC1)c1ccc(F)cc1 [HALOPERIDOL] | Positive: strong inducer confirmed by electron microscopy
CC(C)/N=c1\cc2n(-c3ccc(Cl)cc3)c3ccccc3nc-2cc1Nc1ccc(Cl)cc1 [CLOFAZIMINE] | Negative: based on the absence of positive reported data from WMDD
CC1CC(OC(=O)C(O)c2ccccc2)CC(C)(C)C1 (stereo not drawn) [CYCLANDELATE] | Negative: based on the absence of positive reported data from WMDD
CCN(CC)CC(=O)Nc1c(C)cccc1C [LIDOCAINE] | Positive: weak inducer based on presence of foamy macrophages and cytoplasmic vacuolations
Cc1ccc(N(CC2=NCCN2)c2cccc(O)c2)cc1 [PHENTOLAMINE] | Negative: based on the absence of positive reported data from WMDD
NC(=O)c1cc[n+](CC2=C(C(=O)O)N3C(=O)[C@@H](NC(=O)[C@@H](c4ccccc4)S(=O)(=O)[O-])[C@H]3SC2)cc1 [CEFSULODIN] | Negative: based on the absence of positive reported data from WMDD
Nc1nc(=O)[nH]cc1F [FLUCYTOSINE] | Negative: based on the absence of positive reported data from WMDD
CCCC(CCC)C(N)=O [VALPROMIDE] | Negative: based on the absence of positive reported data from WMDD
C/N=C(\NC)NCc1ccccc1 [BETHANIDINE] | Negative: based on the absence of positive reported data from WMDD
NCCC[C@H](N)CC(=O)N[C@H]1CNC(=O)[C@H]([C@H]2C[C@H](O)NC(N)=N2)NC(=O)/C(=C/NC(N)=O)NC(=O)[C@H](CO)NC(=O)[C@H](CO)NC1=O [VIOMYCIN] (β3hOrn-[Dap]SS[ΔAla(Z-3-ureido)][X1]; lactam 1-C) | Negative: based on the absence of positive reported data from WMDD
CCN(CC)C(=S)S [DITIOCARB] | Negative: based on the absence of positive reported data from WMDD
CN[C@H]1CC[C@@H](c2ccc(Cl)c(Cl)c2)c2ccccc21 [SERTRALINE] | Positive: weak inducer based on presence of foamy macrophages and cytoplasmic vacuolations
CCOC(=O)C1=C(C)NC(C)=C(C(=O)OC)C1c1cccc([N+](=O)[O-])c1 (stereo not drawn) [NITRENDIPINE] | Negative: based on the absence of positive reported data from WMDD
CC[C@]1(O)C[C@@H]2CN(CCc3c([nH]c4ccccc34)[C@@](C(=O)OC)(c3cc4c(cc3OC)N(C)[C@H]3[C@@](O)(C(N)=O)[C@H](O)[C@]5(CC)C=CCN6CC[C@]43[C@@H]65)C2)C1 [VINDESINE] | Negative: based on the absence of positive reported data from WMDD
C#CCN(C)Cc1ccccc1 [PARGYLINE] | Negative: based on the absence of positive reported data from WMDD
CN(C)CCC=C1c2ccccc2C=Cc2c(Cl)cccc21 | Positive: strong inducer confirmed by electron microscopy
CN1CCN(C2=Nc3ccccc3Oc3ccc(Cl)cc32)CC1 [LOXAPINE] | Negative: based on the absence of positive reported data from WMDD

Structure (SMILES) | Phospholipidosis
CN1CCN(C2=Nc3cc(Cl)ccc3N(C)n3cccc32)CC1 | Positive: strong inducer confirmed by electron microscopy
O=C1OC(c2ccc(O)cc2)(c2ccc(O)cc2)c2ccccc21 [PHENOLPHTHALEIN] | Negative: based on the absence of positive reported data from WMDD
CC(=O)N1CCN(c2ccc(OCC3COC(Cn4ccnc4)(c4ccc(Cl)cc4Cl)O3)cc2)CC1 (stereo not drawn) [KETOCONAZOLE] | Positive: weak inducer based on presence of foamy macrophages and cytoplasmic vacuolations
NC[C@H]1O[C@H](O[C@H]2[C@H](O)[C@@H](O[C@H]3O[C@H](CO)[C@@H](O)[C@H](N)[C@H]3O)[C@H](N)C[C@@H]2N)[C@H](N)C[C@@H]1O [TOBRAMYCIN] | Positive: strong inducer confirmed by electron microscopy
CN(C)/N=N/c1[nH]cnc1C(N)=O [DACARBAZINE] | Negative: based on the absence of positive reported data from WMDD
CCN(CC)CCOc1ccc(C(O)(Cc2ccc(Cl)cc2)c2ccc(C)cc2)cc1 (stereo not drawn) [TRIPARANOL] | Positive: strong inducer confirmed by electron microscopy
CCn1nc(C)c2c1C(c1ccccc1)=NCC(=O)N2 [RIPAZEPAM] | Negative: based on the absence of positive reported data from WMDD
CC(C(=O)O)c1cccc(Oc2ccccc2)c1 (stereo not drawn) [FENOPROFEN] | Negative: based on the absence of positive reported data from WMDD
CCCCCCCCCC(=O)OCCN1CCN(CCCN2c3ccccc3Sc3ccc(C(F)(F)F)cc32)CC1 [FLUPHENAZINE DECANOATE] | Negative: based on the absence of positive reported data from WMDD
FC(F)(F)c1ccc(-c2ccc(OCCN3CCCC3)cc2)cc1 [BOXIDINE] | Positive: strong inducer confirmed by electron microscopy
CCCC(C)C1(CC)C(=O)NC(=O)NC1=O (stereo not drawn) [PENTOBARBITAL] | Negative: based on the absence of positive reported data from WMDD
CCN(CC)CCNc1ccc(C)c2sc3ccccc3c(=O)c12 [LUCANTHONE] | Negative: based on the absence of positive reported data from WMDD
CC[N+]1(C)CCCC(OC(=O)C(O)(c2ccccc2)c2ccccc2)C1.[Br-] (stereo not drawn) [PIPENZOLATE BROMIDE] | Negative: based on the absence of positive reported data from WMDD
Cc1cc2c(s1)Nc1ccccc1N=C2N1CCN(C)CC1 [OLANZAPINE] | Negative: based on the absence of positive reported data from WMDD
CN(C)CCCN1c2ccccc2CCc2ccccc21 [IMIPRAMINE] | Positive: strong inducer confirmed by electron microscopy
CC(=O)OCC(=O)[C@H]1CC[C@H]2[C@@H]3CCC4=CC(=O)CC[C@]4(C)[C@H]3CC[C@]12C [DESOXYCORTICOSTERONE ACETATE] | Negative: based on the absence of positive reported data from WMDD
CCCN(CCC)S(=O)(=O)c1ccc(C(=O)O)cc1 [PROBENECID] | Negative: based on the absence of positive reported data from WMDD
Cc1onc(-c2c(F)cccc2Cl)c1C(=O)N[C@@H]1C(=O)N2[C@@H]1SC(C)(C)[C@@H]2C(=O)O [FLOXACILLIN] | Negative: based on the absence of positive reported data from WMDD
COc1ncnc(NS(=O)(=O)c2ccc(N)cc2)c1OC [SULFADOXINE] | Negative: based on the absence of positive reported data from WMDD
CCCCN(CCCC)CCC(O)c1cc2c(Cl)cc(Cl)cc2c2cc(C(F)(F)F)ccc12 (stereo not drawn) [HALOFANTRINE] | Negative: based on the absence of positive reported data from WMDD

Structure (SMILES) | Phospholipidosis
N[C@@H](Cc1ccc(N(CCCl)CCCl)cc1)C(=O)O | Negative: based on the absence of positive reported data from WMDD
O=C[C@H](O)[C@@H](O)[C@H](O)CO [XYLOSE] | Negative: based on the absence of positive reported data from WMDD
O=C(Cn1cnnn1)N[C@@H]1C(=O)N2C(C(=O)O)=C(CSc3nncs3)CS[C@H]12 [CEFTEZOLE] | Negative: based on the absence of positive reported data from WMDD
O=C(OC[C@H]1O[C@](O)(COC(=O)c2cccnc2)[C@@H](OC(=O)c2cccnc2)[C@@H]1OC(=O)c1cccnc1)c1cccnc1 [NICOFURANOSE] | Negative: based on the absence of positive reported data from WMDD
CCN(CC)C(=O)C1CN2CCc3cc(OC)c(OC)cc3C2CC1OC(C)=O (stereo not drawn) [BENZQUINAMIDE] | Negative: based on the absence of positive reported data from WMDD
CCCCC(C)(O)C/C=C/[C@H]1[C@H](O)CC(=O)[C@@H]1CCCCCCC(=O)OC (stereo partly drawn) [MISOPROSTOL] | Negative: based on the absence of positive reported data from WMDD
NCCc1c[nH]cn1 [HISTAMINE] | Negative: based on the absence of positive reported data from WMDD
C=CC[C@]1(O)CC[C@H]2[C@@H]3CCC4=CCCC[C@@H]4[C@H]3CC[C@@]21C [ALLYLESTRENOL] | Negative: based on the absence of positive reported data from WMDD
CN1CCN(C2=Nc3ccccc3Sc3ccc(Cl)cc32)CC1 [CLOTHIAPINE] | Negative: based on the absence of positive reported data from WMDD
N=C(N)N/N=C1C=C/C(=N\NC(N)=S)C=C\1 [AMBAZONE] | Negative: based on the absence of positive reported data from WMDD
CN(C)CCCN1c2ccccc2Sc2ccc(Cl)cc21 [CHLORPROMAZINE] | Positive: strong inducer confirmed by electron microscopy
CC(C)[N+](C)(CCC(C(N)=O)(c1ccccc1)c1ccccc1)C(C)C [ISOPROPAMIDE] | Negative: based on the absence of positive reported data from WMDD
Cc1cc2nc3c(=O)[nH]c(=O)nc-3n(C[C@H](O)[C@H](O)[C@H](O)COP(=O)(O)O)c2cc1C [RIBOFLAVIN 5'-PHOSPHATE] | Negative: based on the absence of positive reported data from WMDD
Cc1ccc(C)c(OCCCC(C)(C)C(=O)O)c1 [GEMFIBROZIL] | Negative: confirmed by electron microscopy
CCC[C@@H](NC(=O)N1C(=O)C(CC)(CC)[C@@H]1Oc1ccc(C(=O)N2CCN(C)CC2)cc1)c1ccc2c(c1)OCO2 | Positive: weak inducer based on presence of foamy macrophages and cytoplasmic vacuolations
CN1CCCCC1CCN1c2ccccc2Sc2ccc([S+](C)[O-])cc21 (stereo not drawn) [MESORIDAZINE] | Positive: weak inducer based on presence of foamy macrophages and cytoplasmic vacuolations
Cc1ccc(S(=O)(=O)NC(=O)NC2CCCCC2)cc1N [METAHEXAMIDE] | Negative: based on the absence of positive reported data from WMDD
CN1CC[C@]23c4c5ccc(O)c4O[C@H]2C(=O)CC[C@@]3(O)[C@H]1C5 [OXYMORPHONE] | Negative: based on the absence of positive reported data from WMDD

Reference: ChEMBL document CHEMBL1697821, “Development of a phospholipidosis database and predictive quantitative structure-activity relationship (QSAR) models” (Toxicol Mech Methods, 2008)
